Assay results taken from US9040530B2, “1,2,4-triazine-6-carboxamide kinase inhibitors” (Portola Pharmaceuticals, Inc., priority 2012, dated 2015).

Target: T1, full length active recombinant SYK enzyme (Homo sapiens, UniProt P43405)
T1 construct: full length active recombinant SYK enzyme (Millipore, Calif.); purchased Millipore
Test: Inhibition of Syk tyrosine phosphorylation activity (LANCE TR-FRET kinase assay)
Format: biochemical
Settings: 1 nM active SYK enzyme, 550 nM SYK-substrate, 100 μM ATP, 1 hour at room temperature
Experimental: The in vitro and in vivo human Syk activities of the inventive compounds can be determined by various procedures known in the art, such as a test for their ability to inhibit the activity of human plasma Syk.
Inhibition of Syk Tyrosine Phosphorylation Activity
SYK tyrosine phosphorylation activity is measured using the LANCE™ Technology developed by Perkin Elmer Life and Analytical Sciences (Boston, Mass.). LANCE™ refers to homogeneous time resolved fluorometry applications using techniques such as time-resolved fluorescence resonance energy transfer assay (TR-FRET) (see generally for procedures in Perkin Elmer Application Note—How to Optimize a Tyrosine Kinase Assay Using Time Resolved Fluorescence-Based LANCE Detection, wwww.perkinelmer.com/lifesciences). The assay principle involves detection of a phosphorylated substrate using energy transfer from a phosphospecific europium-labeled antibody to streptavidin-allophycocyanin as an acceptor.
Molecules are reconstituted in 30% DMSO and serially diluted 1:3 with the final dilution containing DMSO in the absence of the candidate molecule. The final DMSO concentration in the assay is 3%. Kinase assays are performed as a two part reaction. […] The second reaction involves termination of the kinase reaction and the simultaneous addition of the detection reagents-europium-labeled anti-phosphotyrosine reagent (Eu-W1024-PY100, Perkin Elmer, Boston, Mass.) and Streptavidin-Allophycocyanin detection reagent (SA-APC, Prozyme, CA). The kinase reaction is performed in a black U-bottom 96-well microtitre plate. […] The reaction is allowed to proceed for 1 hour at room temperature. The quench buffer contains 100 mM Tris pH 7.5, 300 mM […], 20 mM EDTA, 0.02% Brij35, and 0.5% BSA. The detection reagents are added to the reaction mixture at the following dilutions-1:500 for Eu-W1024-PY100 and 1:250 for SA-APC. The kinase reaction is terminated by the addition of 50 μL quench buffer containing the detection reagents. The detection is allowed to proceed for 1 hr at room temperature. Detection of the phosphorlated substrate in the absence and presence of inhibitors is measured in the TR-FRET instrument, Analyst HT (Molecular Probes, Sunnyvale, Calif.) and the condition for measurements are set up using CriterionHost Release 2.0 (Molecular Probes, Sunnyvale, Calif.). […] IC50s were derived by non-linear regression analysis.

Question: How did the IC50 turn out when `NC(=O)c1nnc(N[C@@H]2CCCC[C@@H]2N)nc1Nc1ccc(-n2cncn2)cc1` [Example 106, 5-((4-(1H-1,2,4-triazol-1-yl)phenyl)amino)-3-(((1R,2S)-2-aminocyclohexyl)amino)-1,2,4-triazine-6-carboxamide] was run?
Answer: 10 to 100 nM

Question: For `CC[C@@H](Nc1nnc(C(N)=O)c(Nc2ccc3c(cnn3C)c2)n1)C(N)=O` [Example 110, (R)-3-((1-amino-1-oxobutan-2-yl)amino)-5-((1-methyl-1H-indazol-5-yl)amino)-1,2,4-triazine-6-carboxamide], which IC50 is on record?
Answer: 10 to 100 nM

Question: `Cc1ccc(Nc2nc(N[C@H](Cc3cccc(F)c3)C(N)=O)nnc2C(N)=O)cc1` [Example 190, (R)-3-(1-amino-3-(3-fluorophenyl)-1-oxopropan-2-ylamino)-5-(p-tolylamino)-1,2,4-triazine-6-carboxamide] was tested. Which IC50 did it give?
Answer: 10 to 100 nM

Question: Which IC50 does the source give for `Cc1ccc(Nc2nc(N[C@@H]3CCCC[C@@H]3N)nnc2C(N)=O)cc1` [Example 8, 3-(((1R,2S)-2-aminocyclohexyl)amino)-5-(p-tolylamino)-1,2,4-triazine-6-carboxamide] here?
Answer: 1 to 10 nM

Question: `Cn1ncc2c(Nc3nc(N[C@@H]4CCCC[C@@H]4N)nnc3C(N)=O)cccc21` [Example 105, 3-(((1R,2S)-2-aminocyclohexyl)amino)-5-((1-methyl-1H-indazol-4-yl)amino)-1,2,4-triazine-6-carboxamide] was tested. Which IC50 did it give?
Answer: 1 to 10 nM

Question: Which IC50 does the source give for `CC[C@@H](Nc1nnc(C(N)=O)c(Nc2cnc3ccccc3c2)n1)C(N)=O` [Example 59, (R)-3-((1-amino-1-oxobutan-2-yl)amino)-5-(quinolin-3-ylamino)-1,2,4-triazine-6-carboxamide] here?
Answer: 10 to 100 nM

Question: `CC[C@@H](Nc1nnc(C(N)=O)c(Nc2ccc3cc[nH]c3c2)n1)C(N)=O` [Example 102, (R)-5-((1H-indol-6-yl)amino)-3-((1-amino-1-oxobutan-2-yl)amino)-1,2,4-triazine-6-carboxamide] was tested. Which IC50 did it give?
Answer: 1 to 10 nM

Question: For `Cn1ccc2c(Nc3nc(NCC4CCC(=O)N4)nnc3C(N)=O)cccc21` (centres unmarked) [Example 89, 5-((1-methyl-1H-indol-4-yl)amino)-3-(((5-oxopyrrolidin-2-yl)methyl)amino)-1,2,4-triazine-6-carboxamide], which IC50 is on record?
Answer: 100 to 1000 nM

Question: For `CC[C@@H](Nc1nnc(C(N)=O)c(Nc2ccc(C)c(C)c2)n1)C(N)=O` [Example 203, (R)-3-((1-amino-1-oxobutan-2-yl)amino)-5-((3,4-dimethylphenyl)amino)-1,2,4-triazine-6-carboxamide], which IC50 is on record?
Answer: 10 to 100 nM

Question: `Cn1cc(C#N)c2ccc(Nc3nc(N[C@@H]4CCCC(F)(F)[C@@H]4N)nnc3C(N)=O)cc21` [Example 173, 3-(((1R,2R)-2-amino-3,3-difluorocyclohexyl)amino)-5-((3-cyano-1-methyl-1H-indol-6-yl)amino)-1,2,4-triazine-6-carboxamide] was tested. Which IC50 did it give?
Answer: 10 to 100 nM

Question: Which IC50 does the source give for `COc1cc(Nc2nc(N[C@@H]3CCCC(F)(F)[C@@H]3N)nnc2C(N)=O)ccc1C` [Example 229, 3-(((1R,2R)-2-amino-3,3-difluorocyclohexyl)amino)-5-((3-methoxy-4-methylphenyl)amino)-1,2,4-triazine-6-carboxamide] here?
Answer: 10 to 100 nM

Question: With `CC[C@@H](Nc1nnc(C(N)=O)c(Nc2cncs2)n1)C(N)=O` [Example 199, (R)-3-((1-amino-1-oxobutan-2-yl)amino)-5-(thiazol-5-ylamino)-1,2,4-triazine-6-carboxamide] as the compound, how does the IC50 read?
Answer: 100 to 1000 nM

Question: Which IC50 does the source give for `NC(=O)c1nnc(N[C@@H]2CCOC[C@@H]2N)nc1Nc1ccc(-c2ncco2)cc1` [Example 253, 3-(((3R,4R)-3-aminotetrahydro-2H-pyran-4-yl)amino)-5-((4-(oxazol-2-yl)phenyl)amino)-1,2,4-triazine-6-carboxamide] here?
Answer: 10 to 100 nM

Question: How did the IC50 turn out when `NC(=O)c1nnc(N[C@@H]2CCCC[C@@H]2N)nc1Nc1cnc2cc(F)ccc2c1` [Example 158, 3-(((1R,2S)-2-aminocyclohexyl)amino)-5-((7-fluoroquinolin-3-yl)amino)-1,2,4-triazine-6-carboxamide] was run?
Answer: 1 to 10 nM

Question: `Cc1cccc(Nc2nc(N[C@H](CC(C)C)C(N)=O)nnc2C(N)=O)c1` [Example 120, (R)-3-((1-amino-4-methyl-1-oxopentan-2-yl)amino)-5-(m-tolylamino)-1,2,4-triazine-6-carboxamide] was tested. Which IC50 did it give?
Answer: 10 to 100 nM

Question: `Cn1ccc2c(Nc3nc(N[C@@H]4CCNC4)nnc3C(N)=O)cccc21` [Example 90, (R)-5-((1-methyl-1H-indol-4-yl)amino)-3-(pyrrolidin-3-ylamino)-1,2,4-triazine-6-carboxamide] was tested. Which IC50 did it give?
Answer: 1 to 10 nM

Question: Which IC50 does the source give for `NC(=O)c1nnc(N[C@@H]2CCCC[C@@H]2N)nc1Nc1cccc2ncccc12` [Example 46, 3-(((1R,2S)-2-aminocyclohexyl)amino)-5-(quinolin-5-ylamino)-1,2,4-triazine-6-carboxamide] here?
Answer: 1 to 10 nM

Question: Which IC50 does the source give for `NC(=O)c1nnc(N[C@@H]2CCNC2)nc1Nc1cccc(-c2ncccn2)c1` [Example 70, (R)-5-((3-(pyrimidin-2-yl)phenyl)amino)-3-(pyrrolidin-3-ylamino)-1,2,4-triazine-6-carboxamide] here?
Answer: 10 to 100 nM

Question: Which IC50 does the source give for `CC[C@@H](Nc1nnc(C(N)=O)c(Nc2cccc3c2ccn3C)n1)C(N)=O` [Example 80, (R)-3-((1-amino-1-oxobutan-2-yl)amino)-5-((1-methyl-1H-indol-4-yl)amino)-1,2,4-triazine-6-carboxamide] here?
Answer: 1 to 10 nM

Question: For `N#Cc1cccc(Nc2nc(N[C@@H]3CCCC[C@@H]3N)nnc2C(N)=O)c1` [Example 72, 3-(((1R,2S)-2-aminocyclohexyl)amino)-5-((3-cyanophenyl)amino)-1,2,4-triazine-6-carboxamide], which IC50 is on record?
Answer: 1 to 10 nM

Question: For `COc1ccc(Nc2nc(N[C@@H]3CCCC[C@@H]3N)nnc2C(N)=O)cc1C(F)(F)F` [Example 114, 3-(((1R,2S)-2-aminocyclohexyl)amino)-5-((4-methoxy-3-(trifluoromethyl)phenyl)amino)-1,2,4-triazine-6-carboxamide], which IC50 is on record?
Answer: 1 to 10 nM

Question: For `NC(=O)c1nnc(N[C@@H]2CCOC[C@@H]2N)nc1Nc1cnc2cccnc2c1` [Example 257, 5-((1,5-naphthyridin-3-yl)amino)-3-(((3R,4R)-3-aminotetrahydro-2H-pyran-4-yl)amino)-1,2,4-triazine-6-carboxamide], which IC50 is on record?
Answer: 100 to 1000 nM

Question: For `CC[C@@H](Nc1nnc(C(N)=O)c(Nc2ccc3ncccc3c2)n1)C(N)=O` [Example 51, (R)-3-((1-amino-1-oxobutan-2-yl)amino)-5-(quinolin-6-ylamino)-1,2,4-triazine-6-carboxamide], which IC50 is on record?
Answer: 1 to 10 nM

Question: With `Cc1ccc(Nc2nc(N[C@H](CC3CC3)C(N)=O)nnc2C(N)=O)cc1C` [Example 210, (R)-3-((1-amino-3-cyclopropyl-1-oxopropan-2-yl)amino)-5-((3,4-dimethylphenyl)amino)-1,2,4-triazine-6-carboxamide] as the compound, how does the IC50 read?
Answer: 1 to 10 nM

Question: `COc1cc(Nc2nc(N[C@@H]3CCCC(F)(F)[C@@H]3N)nnc2C(N)=O)ccc1Cl` [Example 230, 3-(((1R,2R)-2-amino-3,3-difluorocyclohexyl)amino)-5-((4-chloro-3-methoxyphenyl)amino)-1,2,4-triazine-6-carboxamide] was tested. Which IC50 did it give?
Answer: 100 to 1000 nM

Question: For `NC(=O)c1nnc(N[C@@H]2CCOC[C@@H]2N)nc1Nc1cccc(-n2nccn2)c1` [Example 85, 5-((3-(2H-1,2,3-triazol-2-yl)phenyl)amino)-3-(((3R,4R)-3-aminotetrahydro-2H-pyran-4-yl)amino)-1,2,4-triazine-6-carboxamide], which IC50 is on record?
Answer: 1 to 10 nM
